Assay results from patent publication US10179761B2, “Compounds, pharmaceutical composition and their use in treating neurodegenerative diseases” (UNIVERSITE DE LILLE 2 DROIT ET SANTE, priority 2014, dated 2019).

What was measured:
Male Swiss mice = assay: Dizocilpine-induced learning deficits: step-through passive avoidance test; format: in vivo
Description: The activity of compound 3.1.10 was evaluated on the prevention of the dizocilpine-induced learning deficits measured using two behavioral tests. The present experiment tested if its anti-amnesic activity could be blocked by pretreatment with the reference sigma-1 receptor antagonist NE-100.
• Sixty (60) mice were used. Behavioral testing started one week after the arrival of the animals in the AMYLGEN animal facility. • 5 treatment groups were designed and used as follows:
• Vehicle 1 was physiological saline for dizocilpine, DMSO 2% in water for compound 3.1.10 • Animals were used at day 1 in the Y-maze test and at days 2 and 3 in the passive avoidance test, with training at day 2 and retention at day 3. • Test compounds, compound 3.1.10 and/or NE-100 were administered 10 min before dizocilpine (at 0.15 mg/kg i.p.) or vehicle. • Dizocilpine or vehicle 1 was administered 20 min before the Y-maze test session on day 1. • Dizocilpine or vehicle 1 was administered 20 min before the passive avoidance training session on day 2. Drugs were not injected before the retention session on day 3. • The whole experiment program was performed in a single serie experiment. • Treatments were randomized. 2.1.2. Animals
Male Swiss mice, 6 weeks old and weighing 30-35 g, from JANVIER (Saint Berthevin, France), were housed in groups with access to food and water ad libitum, except during experiments. […]
The apparatus is a two-compartments (15×20×15 cm high) box with one illuminated with white polyvinylchloride walls and the other darkened with black polyvinylchloride walls and a grid floor. […] The step-through latency (the latency spent to enter the dark compartment) and the number of vocalizations was recorded. […] The step-through latency was recorded up to 300 s. When the mouse entered the dark compartment or 300 s has elapsed (they were therefore manually placed in it), the escape latency (latency to exit from the dark compartment) was recorded up to 300 s.
They were therefore analyzed using a Kruskal-Wallis non-parametric ANOVA (H value), followed by a Dunn's multiple comparison test.

σ2 receptors = σ2 receptors (Homo sapiens (Human), UniProt Q5BJF2); assay: σ2 binding assay, Jurkat cell membranes, [3H]-DTG in presence of (+)-pentazocine; conditions: hydrochloride salts; mean of 2 or 3 independent experiments; Ki from IC50 (Cheng-Prusoff); read-out: Sigma 2 Ki
Description: The σ binding assays were performed according to Ganapathy et al. (Ganapathy, M. E.; Prasad, P. D.; Huang, W.; Seth, P.; Leibach, F. H.; Ganapathy, V. Molecular and ligand-binding characterization of the sigma-receptor in the Jurkat human T lymphocyte cell line. J. Pharmacol. Exp. Ther. 1999, 289, 251-260). […] The σ2 binding assay was performed by incubating Jurkat cell membranes ([…] protein per tube) with [^3H]-DTG (25 nM) in presence of (+)-pentazocine (1 μM) to saturate σ1 receptors, and a range of concentrations of tested compounds, at room temperature for 1 hour in 5 mM Tris/HCl buffer (pH=7.4). The final assay volume was 0.5 mL. Binding was terminated by rapid filtration through Wathman GF/B filters, which were then washed with 5×1 mL ice-cold NaCl solution and allowed to dry before bound radioactivity was measured using liquid scintillation counting. Nonspecific binding was determined, in both assays, under similar conditions, but in presence of 10 μM unlabeled haloperidol. Inhibition constants (Ki) were calculated from the IC50 values according to the method of Cheng and Prusoff (Cheng, Y.; Prusoff, W. H. Relationship between the inhibition constant (Ki) and the concentration of inhibitor which causes 50 percent inhibition (IC50) of an enzymatic reaction. Biochem Pharmacol. 1973, 22 (23), 3099-108): […]

σ2 receptors, sequence (Q5BJF2 whole entry): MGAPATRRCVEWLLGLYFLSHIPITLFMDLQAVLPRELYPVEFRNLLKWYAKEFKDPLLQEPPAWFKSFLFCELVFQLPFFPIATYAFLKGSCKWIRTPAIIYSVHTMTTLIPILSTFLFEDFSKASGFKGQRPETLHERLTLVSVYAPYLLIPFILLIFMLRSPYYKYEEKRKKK

SMILES: CN(CCCNC(=O)c1ccc(Cl)cc1)Cc1ccccc1 [Compound 3.1.10, N-[3-(benzylmethylamino)propyl]-4-chlorobenzamide]
- dizocilpine-induced learning deficits, passive avoidance test (Male Swiss mice; 0.5 mg/kg i.p., 10 min before dizocilpine 0.15 mg/kg i.p.): significantly attenuated
- beneficial effect of compound 3.1.10 with NE-100, passive avoidance test (Male Swiss mice; 3.1.10 0.5 mg/kg + NE-100 3 mg/kg + dizocilpine 0.15 mg/kg i.p.): prevented by treatment with the sigma-1 antagonist NE-100
- Ki (σ2 receptors): 190 nM
